Data published in patent US7074789B2, “Kinase inhibitors” (Amgen Inc., priority 1999, dated 2006).
Where two headings read alike, the source gives them in different places.

Experiments:
Format in all cases: biochemical
PDGFRB = target: T1, PDGFRB (Homo sapiens, UniProt P09619); assay: Kinase inhibition assay (33P transfer), PDGFRB; settings: read-out: PDGFRB-1
T1 construct: Kinases are expressed as either kinase domains or full length constructs; made in house

Zap-70 = target: T2, Zap-70 (Homo sapiens, UniProt P43403); assay: Kinase inhibition assay (33P transfer), Zap-70; settings: read-out: Zap-1
T2 construct: Kinases are expressed as either kinase domains or full length constructs; made in house
T2 sequence (P43403 1-619): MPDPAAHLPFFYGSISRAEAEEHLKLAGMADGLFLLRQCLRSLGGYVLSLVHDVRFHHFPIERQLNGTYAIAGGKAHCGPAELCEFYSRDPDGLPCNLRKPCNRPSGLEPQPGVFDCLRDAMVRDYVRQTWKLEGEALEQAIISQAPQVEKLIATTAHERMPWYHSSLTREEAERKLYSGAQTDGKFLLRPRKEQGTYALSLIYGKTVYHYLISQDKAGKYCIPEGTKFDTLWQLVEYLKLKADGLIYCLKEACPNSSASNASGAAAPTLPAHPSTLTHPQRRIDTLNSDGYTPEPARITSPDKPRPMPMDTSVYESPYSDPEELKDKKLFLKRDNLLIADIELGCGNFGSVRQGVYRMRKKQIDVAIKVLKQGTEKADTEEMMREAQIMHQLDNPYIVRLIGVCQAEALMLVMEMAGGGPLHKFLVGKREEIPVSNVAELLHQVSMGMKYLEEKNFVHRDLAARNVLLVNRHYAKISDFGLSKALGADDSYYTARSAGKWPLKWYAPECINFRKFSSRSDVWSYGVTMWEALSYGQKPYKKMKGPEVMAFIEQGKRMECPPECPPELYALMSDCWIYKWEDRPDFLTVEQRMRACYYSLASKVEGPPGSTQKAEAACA
How it was run: (§1)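 Each kinase, expressed as a GST- or polyHis-tagged domain or full-length protein, phosphorylated plate-attached poly(Glu,Tyr) 4:1 or poly(Arg,Ser) 3:1 using 33P-ATP. Bound radioactivity was measured by scintillation after a 0.5% phosphoric acid wash.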

Kdr = target: T3, Kdr (Homo sapiens, UniProt P35968); assay: Kinase inhibition assay (33P transfer), Kdr; settings: read-out: KDR-1
T3 construct: Kinases are expressed as either kinase domains or full length constructs; made in house
T3 sequence (P35968 20-1356, species assumed): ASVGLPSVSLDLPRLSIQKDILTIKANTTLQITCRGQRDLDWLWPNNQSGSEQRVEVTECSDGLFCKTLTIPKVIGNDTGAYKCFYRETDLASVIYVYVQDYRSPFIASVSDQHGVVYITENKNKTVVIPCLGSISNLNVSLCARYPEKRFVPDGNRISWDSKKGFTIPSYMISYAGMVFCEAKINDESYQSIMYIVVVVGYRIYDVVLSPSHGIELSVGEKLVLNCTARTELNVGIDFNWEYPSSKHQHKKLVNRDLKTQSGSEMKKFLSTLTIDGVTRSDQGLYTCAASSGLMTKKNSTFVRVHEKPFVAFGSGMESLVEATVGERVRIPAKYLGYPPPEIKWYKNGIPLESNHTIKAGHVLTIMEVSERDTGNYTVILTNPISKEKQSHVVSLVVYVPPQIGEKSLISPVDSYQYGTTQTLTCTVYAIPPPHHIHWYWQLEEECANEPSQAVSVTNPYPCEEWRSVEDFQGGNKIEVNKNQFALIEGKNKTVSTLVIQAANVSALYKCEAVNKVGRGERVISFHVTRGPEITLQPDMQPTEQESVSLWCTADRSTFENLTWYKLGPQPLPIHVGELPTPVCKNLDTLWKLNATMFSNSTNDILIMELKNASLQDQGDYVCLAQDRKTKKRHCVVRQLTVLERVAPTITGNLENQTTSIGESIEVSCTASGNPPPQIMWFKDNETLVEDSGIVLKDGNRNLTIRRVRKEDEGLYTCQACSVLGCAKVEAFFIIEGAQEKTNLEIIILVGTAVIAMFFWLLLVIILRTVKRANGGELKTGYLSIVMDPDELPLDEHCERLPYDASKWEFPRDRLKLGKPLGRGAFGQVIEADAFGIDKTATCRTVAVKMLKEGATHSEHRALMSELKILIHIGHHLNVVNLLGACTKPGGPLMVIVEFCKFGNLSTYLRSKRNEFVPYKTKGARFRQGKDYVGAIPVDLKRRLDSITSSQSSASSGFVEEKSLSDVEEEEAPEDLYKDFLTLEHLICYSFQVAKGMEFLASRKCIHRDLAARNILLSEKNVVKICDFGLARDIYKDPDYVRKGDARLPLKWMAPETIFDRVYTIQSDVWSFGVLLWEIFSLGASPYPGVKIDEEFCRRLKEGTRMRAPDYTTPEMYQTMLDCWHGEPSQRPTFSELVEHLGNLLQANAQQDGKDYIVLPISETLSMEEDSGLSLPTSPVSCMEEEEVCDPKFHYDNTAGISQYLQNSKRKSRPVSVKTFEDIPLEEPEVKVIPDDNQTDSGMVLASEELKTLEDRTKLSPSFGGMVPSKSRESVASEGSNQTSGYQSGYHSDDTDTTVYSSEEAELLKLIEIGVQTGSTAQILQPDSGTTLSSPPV
How it was run: as §1

c-Met = target: T4, c-Met (Homo sapiens, UniProt P08581); assay: Kinase inhibition assay (33P transfer), c-Met; settings: Table 2, kinase inhibition class; read-out: Met-1
T4 construct: Kinases are expressed as either kinase domains or full length constructs; made in house
How it was run: (§2)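 GST/His-fusion kinases, E. coli or High Five expressed, affinity purified; 33P-ATP, plate-coated poly(Glu,Tyr) 4:1 or poly(Arg,Ser) 3:1; 0.5% H3PO4 wash, scintillant, LSC.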

ErbB2 = target: T5, ErbB2 (Homo sapiens, UniProt P04626); assay: Kinase inhibition assay (33P transfer), ErbB2; settings: read-out: ErbB2-2
T5 construct: Kinases are expressed as either kinase domains or full length constructs; made in house
T5 sequence (P04626 23-1255, species assumed): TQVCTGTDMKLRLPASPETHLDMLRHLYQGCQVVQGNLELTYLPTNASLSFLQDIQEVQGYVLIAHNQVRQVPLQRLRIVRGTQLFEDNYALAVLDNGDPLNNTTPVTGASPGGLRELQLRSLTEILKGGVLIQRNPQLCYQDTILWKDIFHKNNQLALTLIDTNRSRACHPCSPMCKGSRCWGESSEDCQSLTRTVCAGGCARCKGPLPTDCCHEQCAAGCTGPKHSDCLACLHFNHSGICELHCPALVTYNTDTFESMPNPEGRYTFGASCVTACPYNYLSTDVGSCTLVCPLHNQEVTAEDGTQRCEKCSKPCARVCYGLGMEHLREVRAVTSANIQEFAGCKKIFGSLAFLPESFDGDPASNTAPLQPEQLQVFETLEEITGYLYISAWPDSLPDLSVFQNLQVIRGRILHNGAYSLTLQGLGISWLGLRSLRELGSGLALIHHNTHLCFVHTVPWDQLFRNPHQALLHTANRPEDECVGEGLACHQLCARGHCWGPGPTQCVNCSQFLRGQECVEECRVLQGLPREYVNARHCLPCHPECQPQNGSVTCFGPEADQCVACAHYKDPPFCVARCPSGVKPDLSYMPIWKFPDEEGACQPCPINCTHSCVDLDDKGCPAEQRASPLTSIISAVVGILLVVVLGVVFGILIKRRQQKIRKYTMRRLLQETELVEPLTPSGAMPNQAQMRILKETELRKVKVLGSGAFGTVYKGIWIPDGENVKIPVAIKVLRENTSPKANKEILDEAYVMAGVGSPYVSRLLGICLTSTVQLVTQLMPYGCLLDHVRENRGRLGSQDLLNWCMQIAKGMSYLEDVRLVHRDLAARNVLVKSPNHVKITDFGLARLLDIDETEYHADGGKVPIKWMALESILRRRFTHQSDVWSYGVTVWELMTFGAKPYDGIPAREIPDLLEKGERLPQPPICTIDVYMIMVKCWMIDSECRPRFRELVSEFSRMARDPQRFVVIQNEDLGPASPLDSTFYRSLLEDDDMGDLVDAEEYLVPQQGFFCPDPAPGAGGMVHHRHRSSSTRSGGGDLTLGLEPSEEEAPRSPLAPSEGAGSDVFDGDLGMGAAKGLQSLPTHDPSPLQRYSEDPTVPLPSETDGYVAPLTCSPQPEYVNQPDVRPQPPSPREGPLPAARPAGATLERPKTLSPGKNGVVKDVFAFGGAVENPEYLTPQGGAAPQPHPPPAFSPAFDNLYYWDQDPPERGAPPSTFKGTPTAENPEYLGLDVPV
How it was run: as §2

Itk = target: T6, Itk (Homo sapiens, UniProt Q08881); assay: Kinase inhibition assay (33P transfer), Itk; settings: read-out: Itk-1
T6 construct: Kinases are expressed as either kinase domains or full length constructs; made in house
T6 sequence (Q08881 1-620): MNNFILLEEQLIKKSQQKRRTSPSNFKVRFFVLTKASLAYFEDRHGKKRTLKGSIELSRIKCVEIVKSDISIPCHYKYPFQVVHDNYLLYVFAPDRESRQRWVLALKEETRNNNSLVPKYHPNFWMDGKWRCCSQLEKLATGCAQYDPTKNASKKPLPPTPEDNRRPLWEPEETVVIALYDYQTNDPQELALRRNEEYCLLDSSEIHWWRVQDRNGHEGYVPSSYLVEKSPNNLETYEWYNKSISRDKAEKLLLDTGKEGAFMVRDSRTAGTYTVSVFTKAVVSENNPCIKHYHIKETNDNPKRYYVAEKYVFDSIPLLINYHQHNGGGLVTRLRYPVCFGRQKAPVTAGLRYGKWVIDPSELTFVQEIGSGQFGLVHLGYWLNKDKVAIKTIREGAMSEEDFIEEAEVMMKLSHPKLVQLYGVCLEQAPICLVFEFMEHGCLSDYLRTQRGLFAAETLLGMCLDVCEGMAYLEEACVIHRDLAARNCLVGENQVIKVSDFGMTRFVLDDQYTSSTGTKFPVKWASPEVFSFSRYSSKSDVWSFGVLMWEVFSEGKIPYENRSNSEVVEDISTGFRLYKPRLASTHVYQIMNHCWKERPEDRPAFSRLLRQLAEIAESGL
How it was run: as §2

AKT = target: T7, AKT (Homo sapiens, UniProt Q9Y243); assay: Kinase inhibition assay (33P transfer), AKT; settings: Table 2, kinase inhibition class; read-out: AKT3-1
T7 construct: Kinases are expressed as either kinase domains or full length constructs; made in house
How it was run: as §1

Tek = target: T8, Tek (Homo sapiens, UniProt Q02763); assay: Kinase inhibition assay (33P transfer), Tek; settings: read-out: Tek-1
T8 construct: Kinases are expressed as either kinase domains or full length constructs; made in house
T8 sequence (Q02763 23-1124, species assumed): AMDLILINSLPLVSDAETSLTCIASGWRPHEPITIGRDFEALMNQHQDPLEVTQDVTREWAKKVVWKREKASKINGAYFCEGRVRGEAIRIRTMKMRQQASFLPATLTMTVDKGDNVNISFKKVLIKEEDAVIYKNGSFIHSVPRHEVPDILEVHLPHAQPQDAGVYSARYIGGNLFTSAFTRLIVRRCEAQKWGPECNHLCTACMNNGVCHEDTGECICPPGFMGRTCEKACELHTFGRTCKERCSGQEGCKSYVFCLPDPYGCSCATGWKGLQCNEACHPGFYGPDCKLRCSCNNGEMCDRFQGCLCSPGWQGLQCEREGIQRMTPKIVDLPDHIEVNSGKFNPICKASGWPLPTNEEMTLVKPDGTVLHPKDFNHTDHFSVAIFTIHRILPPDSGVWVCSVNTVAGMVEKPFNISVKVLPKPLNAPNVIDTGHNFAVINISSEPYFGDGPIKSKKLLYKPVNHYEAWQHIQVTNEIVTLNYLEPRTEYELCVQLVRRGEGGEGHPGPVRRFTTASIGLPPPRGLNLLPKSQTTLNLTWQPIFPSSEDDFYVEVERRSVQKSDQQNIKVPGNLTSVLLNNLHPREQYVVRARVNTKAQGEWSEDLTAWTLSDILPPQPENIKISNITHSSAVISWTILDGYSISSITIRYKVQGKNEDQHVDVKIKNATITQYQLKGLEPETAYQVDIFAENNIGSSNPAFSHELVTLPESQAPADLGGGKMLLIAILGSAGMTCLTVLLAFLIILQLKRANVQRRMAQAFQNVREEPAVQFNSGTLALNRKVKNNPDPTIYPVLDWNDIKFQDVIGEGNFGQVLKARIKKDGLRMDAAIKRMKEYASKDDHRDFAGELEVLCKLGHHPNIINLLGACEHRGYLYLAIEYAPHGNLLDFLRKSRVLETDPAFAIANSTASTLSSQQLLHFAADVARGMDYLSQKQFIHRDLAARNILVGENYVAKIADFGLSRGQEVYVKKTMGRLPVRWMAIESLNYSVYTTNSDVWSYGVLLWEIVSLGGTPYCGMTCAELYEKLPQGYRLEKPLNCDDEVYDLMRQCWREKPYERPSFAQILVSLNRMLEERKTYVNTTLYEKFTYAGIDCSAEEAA
How it was run: as §2

IGFR-1 = target: T9, IGFR-1 (Homo sapiens, UniProt P08069); assay: Kinase inhibition assay, IGFR-1 (Table 2); settings: Table 2, kinase inhibition class
T9 construct: Kinases are expressed as either kinase domains or full length constructs; made in house

EGFR = target: T10, EGFR (Homo sapiens, UniProt P00533); assay: Kinase inhibition assay (33P transfer), EGFR; settings: Table 2, kinase inhibition class; read-out: EGFR-1
T10 construct: Kinases are expressed as either kinase domains or full length constructs; made in house
How it was run: as §2

Lck = target: T11, Lck (Homo sapiens, UniProt P06239); assay: Kinase inhibition assay (33P transfer), Lck; settings: read-out: Lck-1
T11 construct: Kinases are expressed as either kinase domains or full length constructs; made in house
How it was run: as §1

FGFR1 = target: T12, FGFR1 (Homo sapiens, UniProt P11362); assay: Kinase inhibition assay (33P transfer), FGFR1; settings: read-out: FGFR1-1
T12 construct: Kinases are expressed as either kinase domains or full length constructs; made in house

Flt-1 = target: T13, Flt-1 (Homo sapiens, UniProt P17948); assay: Kinase inhibition assay (33P transfer), Flt-1
T13 construct: Kinases are expressed as either kinase domains or full length constructs; made in house
Description: The inhibitor compounds described herein are screened in the following manner. Kinases suitable for use in the following protocol to determine kinase activity of the compounds described herein include, -but are not limited to: Lck, Lyn, Src, Fyn, Syk, Zap-70, Itk, Tec, Btk, EGFR, ErbB2, Kdr, Flt-1, Flt-3, Tek, c-Met, InsR, and AKT.
Kinases are expressed as either kinase domains or full length constructs fused to glutathione S-transferase (GST) or polyHistidine tagged fusion proteins in either E. colior Baculovirus-High Five expression systems. They are purified to near homogeneity by affinity chromatography essentially as previously described (Lehr et al., 1996; Gish et al., 1995). In some instances, kinases are co-expressed or mixed with purified or partially purified regulatory polypeptides prior to measurement of activity.
Kinase activity and inhibition are measured essentially by established protocols (Braunwalder et al., 1996). Briefly, The transfer of ^33PO4 from ATP to the synthetic substrates poly(Glu, Tyr) 4:1 or poly(Arg, Ser) 3:1 attached to the bioactive surface of microtiter plates serves as the basis to evaluate enzyme activity. After an incubation period, the amount of phosphate transferred is measured by first washing the plate with 0.5% phosphoric acid, adding liquid scintillant, and then counting in a liquid scintillation detector. The IC50 is determined by the concentration of compound that causes a 50% reduction in the amount of […] incorporated onto the substrate bound to the plate.

T1 sequence (P09619 33-1106, species assumed): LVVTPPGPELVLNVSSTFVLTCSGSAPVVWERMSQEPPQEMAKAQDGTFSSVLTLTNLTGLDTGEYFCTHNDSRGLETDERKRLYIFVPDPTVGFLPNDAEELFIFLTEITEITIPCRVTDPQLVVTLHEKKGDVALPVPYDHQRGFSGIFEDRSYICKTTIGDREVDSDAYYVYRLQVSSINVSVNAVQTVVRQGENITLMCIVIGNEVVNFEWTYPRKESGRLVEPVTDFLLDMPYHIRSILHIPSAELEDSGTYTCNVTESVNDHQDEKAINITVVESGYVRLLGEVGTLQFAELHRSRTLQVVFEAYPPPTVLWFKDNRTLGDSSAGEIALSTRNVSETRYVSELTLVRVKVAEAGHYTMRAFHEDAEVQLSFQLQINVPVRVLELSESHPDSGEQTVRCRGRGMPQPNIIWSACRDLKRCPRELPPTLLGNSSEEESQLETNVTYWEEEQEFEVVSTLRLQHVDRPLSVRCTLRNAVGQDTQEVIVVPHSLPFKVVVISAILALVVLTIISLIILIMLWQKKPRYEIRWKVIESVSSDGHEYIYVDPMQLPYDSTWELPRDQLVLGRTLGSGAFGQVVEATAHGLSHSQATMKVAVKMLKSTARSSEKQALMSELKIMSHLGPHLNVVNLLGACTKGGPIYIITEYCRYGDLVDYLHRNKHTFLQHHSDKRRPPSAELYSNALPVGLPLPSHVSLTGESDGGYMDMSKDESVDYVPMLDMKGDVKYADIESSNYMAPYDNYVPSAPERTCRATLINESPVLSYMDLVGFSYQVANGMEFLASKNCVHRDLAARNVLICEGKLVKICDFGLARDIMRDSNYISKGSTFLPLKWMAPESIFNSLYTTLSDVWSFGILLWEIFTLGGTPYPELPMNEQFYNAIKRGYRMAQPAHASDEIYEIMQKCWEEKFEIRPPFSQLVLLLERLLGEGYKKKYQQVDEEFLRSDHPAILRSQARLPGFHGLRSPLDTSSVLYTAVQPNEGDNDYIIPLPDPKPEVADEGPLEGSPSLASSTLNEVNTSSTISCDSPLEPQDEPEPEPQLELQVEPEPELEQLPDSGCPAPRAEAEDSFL

Row | SMILES | IC50 (PDGFRB) | IC50 (Zap-70) | IC50 (Kdr) | IC50 (c-Met) | IC50 (ErbB2) | IC50 (Itk) | IC50 (AKT) | IC50 (Tek) | IC50 (IGFR-1) | IC50 (EGFR) | IC50 (Lck) | IC50 (Zap-70; Table 3) | IC50 (Kdr; Table 3) | IC50 (Itk; Table 3) | IC50 (FGFR1) | IC50 (Flt-1) | IC50 (Lck; Table 3)
1 | COc1cc(Nc2ncnc(-n3c(C)nc4ccccc43)n2)cc(OC)c1OC [Compound 691] | < 1.02 µM | > 11.5 µM | < 1.02 µM | 1.02 to 6.12 µM | > 11.5 µM | 6.12 to 8.92 µM | > 11.5 µM | > 11.5 µM | < 1.02 µM | 6.12 to 8.92 µM | 1.02 to 6.12 µM |  |  |  |  |  | 
2 | COc1cc(Nc2ncnc(-n3cccc3)n2)cc(OC)c1OC [Compound 182] | > 13.7 µM |  |  | 10.7 to 13.7 µM |  |  |  |  |  | > 13.7 µM |  | > 13.7 µM | < 1.22 µM | > 13.7 µM | > 13.7 µM | > 13.7 µM | 7.33 to 10.7 µM
3 | COc1cc(Nc2ncnc(Nc3cc(-c4ccc(C(=O)O)cc4)n[nH]3)n2)cc(OC)c1OC [Compound 1004] | 0.863 to 5.18 µM | > 9.71 µM | 0.863 to 5.18 µM | < 0.863 µM | 0.863 to 5.18 µM | 7.55 to 9.71 µM | > 9.71 µM | 0.863 to 5.18 µM | < 0.863 µM | 0.863 to 5.18 µM | < 0.863 µM |  |  |  |  |  | 
4 | COc1ccc(Nc2ncnc(Nc3cc(-c4ccccc4)n[nH]3)n2)cc1OC [Compound 977] | > 11.6 µM | > 11.6 µM | < 1.03 µM | < 1.03 µM | 1.03 to 6.16 µM | > 11.6 µM | > 11.6 µM | > 11.6 µM | < 1.03 µM | 1.03 to 6.16 µM | < 1.03 µM |  |  |  |  |  | 
5 | COc1cc(Nc2ncnc(-n3c(NCc4nc5ccccc5[nH]4)nc4ccccc43)n2)cc(OC)c1OC [Compound 954] | > 8.6 µM | > 8.6 µM | 6.69 to 8.6 µM | 6.69 to 8.6 µM | 4.58 to 6.69 µM | 4.58 to 6.69 µM | > 8.6 µM | > 8.6 µM | 6.69 to 8.6 µM | > 8.6 µM | 6.69 to 8.6 µM |  |  |  |  |  | 
6 | COc1cccc(Nc2ncnc(-n3c(N)nc4ccccc43)n2)c1 [Compound 654] | 1.2 to 7.2 µM | > 13.5 µM | < 1.2 µM | 7.2 to 10.5 µM | 1.2 to 7.2 µM | 1.2 to 7.2 µM | > 13.5 µM | 1.2 to 7.2 µM | < 1.2 µM | 7.2 to 10.5 µM | 1.2 to 7.2 µM |  |  |  |  |  | 
